The values that follow come from patent US12152035B2, “Androgen receptor binding molecule and use thereof” (Industrial Technology Research Institute, priority 2020, dated 2024).

Data set [1] has as its system CWR22Rv1 cells or VCaP cells. Kind of data set: Xenograft tumor growth in SCID mice. It is filed as in vivo, Male SCID mice. Conditions: 5 or 30 mg/kg, IP, BID. The protocol: Mice: Male SCID mice (CB17/Icr-Prkdcscid/IcrIcoCrlBltw, 4-6 weeks old, purchased from BioLASCO Taiwan Co., Ilan, Taiwan.)
The cells were harvested when CWR22Rv1 cells or VCaP cells were cultured to exponential growth phase, and then the cells were washed twice with PBS. Then, for CWR22Rv1 cells, 5×10^6 cells were suspended in 100 μL PBS containing 33% Matrigel to form a cell suspension; for VCaP cells, 3×10^6 cells were suspended in 100 μL PBS containing 50% Matrigel to form a cell suspension cell suspension. Then, the above cell suspension was subcutaneously implanted into the right back of male SCID mice with a 25G needle.
After cell inoculation, when the average tumor volume reached […] or the tumor clearly began to grow, the mice were divided into a vehicle-treated group (n=4-8), 5 mg/kg Compound 1 treated group (n=4-8) and 30 mg/kg Compound 1 treatment group (n=4-8), and administered by intraperitoneal injection (IP), twice daily (BID). The vehicle was 10% N-methylpyrrolidone (NMP, N-Methyl-2-pyrrolidone) and 20% castor oil polyoxyethylene ether (Cremophor EL) in PBS buffer solution. Tumor volume and animal body weight were determined three times a week after dosing.
Tumor size was measured with a caliper and converted to tumor volume (cm^3; V) using the formula: V=0.5×[Length×(Width)^2]
Antitumor activity was expressed as tumor growth inhibition (TGI). […]

For another data set, the system named is CWR22RV1 cells. Kind of data set: Cytotoxicity assay (AlamarBlue, 72 hours). To be noted: 72 hours treatment, concentration not given. It is filed as cell-based. Put shortly:
(§1)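 CWR22Rv1 or VCaP cells in RPMI-1640 with 10% FBS were seeded at 1×10^4 cells/well. Next day they were treated with compound, test samples at 100, 10, 1 and 0.1 μM, giving 1% DMSO final. After 72 h, AlamarBlue was added for 4 h, fluorescence was read at Ex/Em 560/590 nm, and % cytotoxicity was calculated.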

The subject of the next data set is VCaP cells. Kind of data set: Cytotoxicity assay (AlamarBlue, 72 hours). It counts as cell-based. Conditions: 72 hours treatment, concentration not given. Put shortly: as §1
Data set [2] has as its system full-length androgen receptor. Kind of data set: Western blot: degradation of full-length androgen receptor in CWR22RV1 cells. Conditions: overnight. It is filed as cell-based. The essentials:
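CWR22Rv1 cells (5×10^5 per well) seeded overnight in RPMI with 10% FBS at 37 °C, 5% CO2, then given fresh medium and compound at various concentrations overnight. Lysates analysed by Western blot for full-length AR and AR-V7, with GAPDH as loading control.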
A general note: Immunoblotting shows a protein as a band on a membrane.

Where [3] appears, read: compound concentration 0.1 (unit not given).
The mark [4] stands for this setting: compound concentration 1 (unit not given).
Where [5] appears, read: compound concentration 10 (unit not given).

Turning to `Cc1ncsc1-c1ccc(CNC(=O)[C@@H]2C[C@H](O)CN2C(=O)[C@@H](NC(=O)COCCCCOc2ccc(C3CCN(C4=Nn5c(nnc5C(F)(F)F)CC4)CC3)cc2)C(C)(C)C)cc1` [Compound 1, (2S,4S)-1-((S)-3,3-dimethyl-2-(2-(4-(4-(1-(3-(trifluoromethyl)-7,8-dihydro-[1,2,4]triazolo[4,3-b]pyridazin-6-yl)piperidin-4-yl)phenoxy)butoxy)acetamido)butanoyl)-4-hydroxy-N-(4-(4-methylthiazol-5-yl)benzyl)pyrrolidine-2-carboxamide], in data set [1], the “Increase in tumor size compared to vehicle treatment” value is “tends to slow down”. In the data set with CWR22RV1 cells, the “Cytotoxicity, CWR22RV1 cells (cell viability %)” value is “+++ (<40% : +++)”. The “Cytotoxicity, VCaP cells (cell viability %)” value in the data set on VCaP cells is on record as “+++ (<40% : +++)”. Further, the “Degradation ability for full-length androgen receptor (residual rate %)” value (from here on “Degradation ability … (residual rate %)”) in data set [2] (setting [3]) was “+ (60-80%: +)”; in data set [2] (setting [4]), “+ (60-80%: +)”; in data set [2] (setting [5]), “+++ (<40%: +++)”.
For `O=C1CCC(N2Cc3cc(C4CCN(C(=O)COCCCCOc5ccc(C6CCN(C7=Nn8c(nnc8C(F)(F)F)CC7)CC6)cc5)CC4)ccc3C2=O)C(=O)N1` (stereo not shown) [Compound 41, 3-(1-oxo-5-(1-(2-(4-(4-(1-(3-(trifluoromethyl)-7,8-dihydro-[1,2,4]triazolo[4,3-b]pyridazin-6-yl)piperidin-4-yl)phenoxy)butoxy)acetyl)piperidin-4-yl)isoindolin-2-yl)piperidine-2,6-dione], the “Cytotoxicity, CWR22RV1 cells (cell viability %)” value in the data set on CWR22RV1 cells is “++ (40-60% : ++)”. Besides, the “Cytotoxicity, VCaP cells (cell viability %)” value in the data set on VCaP cells is “+++ (<40% : +++)”. For the same molecule, the “Degradation ability … (residual rate %)” value in data set [2] (setting [3]) is given as “− (>80%; −)”; in data set [2] (setting [4]), “+ (60-80%: +)”; in data set [2] (setting [5]) it was “+++ (<40%: +++)”.
In the same order, the values of `O=C1CCC(N2C(=O)c3cccc(NCC(=O)N4CCC(N5CCC(C#Cc6ccc(C7CCN(C8=Nn9c(nnc9C(F)(F)F)CC8)CC7)cc6)CC5)CC4)c3C2=O)C(=O)N1` (stereo not shown) [Compound 43, 2-(2,6-dioxopiperidin-3-yl)-4-((2-oxo-2-(4-((4-(1-(3-(trifluoromethyl)-7,8-dihydro-[1,2,4]triazolo[4,3-b]pyridazin-6-yl)piperidin-4-yl)phenyl)ethynyl)-[1,4′-bipiperidin]-1′-yl)ethyl)amino)isoindoline-1,3-dione] are “+++ (<40% : +++)”, “+++ (<40% : +++)”, “++ (40-60%: ++)”, “++ (40-60%: ++)” and “++ (40-60%: ++)”.
The corresponding values for `Cc1cc([C@H](C(=O)N2C[C@H](O)C[C@H]2C(=O)N[C@@H](CC(=O)N2CCC(C#Cc3ccc(C4CCN(C5=Nn6c(nnc6C(F)(F)F)CC5)CC4)cc3)CC2)c2ccc(-c3scnc3C)cc2)C(C)C)on1` [Compound 14, (2S,4R)-4-hydroxy-1-((R)-3-methyl-2-(3-methylisoxazol-5-yl)butanoyl)-N—((S)-1-(4-(4-methylthiazol-5-yl)phenyl)-3-oxo-3-(4-((4-(1-(3-(trifluoromethyl)-7,8-dihydro-[1,2,4]triazolo[4,3-b]pyridazin-6-yl)piperidin-4-yl)phenyl)ethynyl)piperidin-1-yl)propyl)pyrrolidine-2-carboxamide] are “+++ (<40% : +++)”, “+++ (<40% : +++)”, “− (>80%; −)”, “− (>80%; −)” and “+++ (<40%: +++)”.
The corresponding values for `CC1(C)[C@H](NC(=O)c2ccc(C#CC3CCN(c4cccc5c4C(=O)N(C4CCC(=O)NC4=O)C5=O)CC3)cc2)C(C)(C)[C@H]1Oc1ccc2nnc(C(F)(F)F)n2n1` (stereo partly shown) [Compound 46, 4-((1-(2-(2,6-dioxopiperidin-3-yl)-1,3-dioxoisoindolin-4-yl)piperidin-4-yl)ethynyl)-N-((1r,3r)-2,2,4,4-tetramethyl-3-((3-(trifluoromethyl)-[1,2,4]triazolo[4,3-b]pyridazin-6-yl)oxy)cyclobutyl)benzamide] are “− (<80% : −)”, “++ (40-60% : ++)”, “++ (40-60%: ++)”, “++ (40-60%: ++)” and “− (>80%; −)”.
Regarding `CC1(C)C(NC(=O)c2ccc(C#CC3CCN(C(=O)CNc4cccc5c4C(=O)N(C4CCC(=O)NC4=O)C5=O)CC3)cc2)C(C)(C)C1Oc1ccc2nnc(C(F)(F)F)n2n1` (stereo not shown) [Compound 49, 4-((1-((2-(2,6-dioxopiperidin-3-yl)-1,3-dioxoisoindolin-4-yl)glycyl)piperidin-4-yl)ethynyl)-N-((1r,3r)-2,2,4,4-tetramethyl-3-((3-(trifluoromethyl)-[1,2,4]triazolo[4,3-b]pyridazin-6-yl)oxy)cyclobutyl)benzamide], the “Cytotoxicity, CWR22RV1 cells (cell viability %)” value with CWR22RV1 cells is recorded as “++ (40-60% : ++)”. In addition, in the data set on VCaP cells, the “Cytotoxicity, VCaP cells (cell viability %)” value is given as “+++ (<40% : +++)”. For the same molecule, the “Degradation ability … (residual rate %)” value in data set [2] (setting [3]) is on record as “++ (40-60%: ++)”; in data set [2] (setting [4]), “++ (40-60%: ++)”; in data set [2] (setting [5]), “− (>80%; −)”.
